The values that follow come from ChEMBL document CHEMBL4330082, “Tailoring a lead-like compound targeting multiple G-quadruplex structures” (Eur J Med Chem, 2019).

Activity calls are given as the source filed them. The calls are words filed in the database; no cut-off is given here. Some results are limits rather than exact numbers.

Data set [1] relates to dsDNA. Nature of the data set: Binding affinity to synthetic 27-mer duplex DNA assessed as residual binding at 60 uM after 4 mins by UV-Vis spectrophotometric analysis relative to control. Format: nucleic-acid assay.
Data set [2] has as its system Quadruplex DNA. The data set can be described thus: Binding affinity to synthetic telomeric 26 G-quadruplex DNA assessed as residual binding at 60 uM after 4 mins by UV-Vis spectrophotometric analysis relative to control. Format: nucleic-acid assay.
For data set [3], the system named is Quadruplex DNA. The data set can be described thus: Binding affinity to synthetic c-Kit2 G-quadruplex DNA assessed as residual binding at 60 uM after 4 mins by UV-Vis spectrophotometric analysis relative to control. Format: nucleic-acid assay.
The species entered for data set [4] is Homo sapiens. The data set can be described thus: Induction of telomeric DNA damage in human BJeH-LT cells expressing human TERT assessed as increase in gamma-histone H2AX levels at 0.5 uM after 24 hrs by immunofluorescence assay. Format: functional, cell-based.
Data set [5] deals with Quadruplex DNA. Nature of the data set: Binding affinity to human TERT1 G-quadruplex DNA assessed as residual binding at 60 uM after 4 mins by UV-Vis spectrophotometric analysis relative to control. Format: nucleic-acid assay.
In data set [6] the test system is Quadruplex DNA. Nature of the data set: Binding affinity to synthetic c-Kit1 G-quadruplex DNA assessed as residual binding at 60 uM after 4 mins by UV-Vis spectrophotometric analysis relative to control. Format: nucleic-acid assay.
For data set [7], the species on record is Homo sapiens. The data set can be described thus: Induction of telomeric DNA damage in human BJeH-LT cells expressing human TERT assessed as increase in TIF positive cells at 0.5 uM after 24 hrs by immunofluorescence assay. Format: functional, cell-based.
The test system of data set [8] is HeLa. The data set can be described thus: Inhibition of colony formation in human HeLa cells at 2 uM after 10 days by methylene blue staining-based assay. Format: functional, cell-based.
For data set [9], the system named is Quadruplex DNA. The data set can be described thus: Binding affinity to synthetic cMYC G-quadruplex DNA assessed as residual binding at 60 uM after 4 mins by UV-Vis spectrophotometric analysis relative to control. Format: nucleic-acid assay.
Data set [10] relates to Quadruplex DNA. The data set can be described thus: Binding affinity to synthetic MYC 22 G-quadruplex DNA assessed as melting temperature compound:DNA ratio of 4:1 by 1H NMR spectroscopic analysis. Format: nucleic-acid assay.
Data set [11] relates to Quadruplex DNA. Nature of the data set: Induction of conformational changes in synthetic telomeric 26 G-quadruplex DNA at 1 to 5 equivalents after 5 mins by CD spectra analysis. Format: nucleic-acid assay.
In data set [12] the test system is Quadruplex DNA. Nature of the data set: Binding affinity to synthetic cMYC G-quadruplex DNA assessed as melting temperature compound:DNA ratio of 5:1 after 5 mins by CD spectra analysis (reference value: 82 degreeC). Format: nucleic-acid assay.
Data set [13] deals with dsDNA. Nature of the data set: Binding affinity to synthetic 27-mer duplex DNA assessed as melting temperature compound:DNA ratio of 5:1 after 5 mins by CD spectra analysis (reference value: 75 degreeC). Format: nucleic-acid assay.
Data set [14] relates to Quadruplex DNA. The data set can be described thus: Binding affinity to synthetic modified telomeric 24 G-quadruplex DNA assessed as melting temperature compound:DNA ratio of 4:1 by 1H NMR spectroscopic analysis. Format: nucleic-acid assay.
Data set [15] deals with Quadruplex DNA. The data set can be described thus: Binding affinity to Cy5-fluorescently labeled synthetic MYC 22 G-quadruplex DNA by microscale thermophoresis assay. Format: nucleic-acid assay.
The next data set has as its system BJ. Nature of the data set: Cytotoxicity against in human BJ cells expressing human TERT assessed as reduction in cell viability at 1 to 2 uM incubated for 6 days by trypan blue exclusion assay. The note with it: 144 h. Format: cell-based.
The subject of data set [16] is Quadruplex DNA. Nature of the data set: Induction of conformational changes in synthetic cMYC G-quadruplex DNA at 1 to 5 equivalents after 5 mins by CD spectra analysis. Format: nucleic-acid assay.
The test system of data set [17] is dsDNA. The data set can be described thus: Induction of conformational changes in synthetic 27-mer duplex DNA at 1 to 5 equivalents after 5 mins by CD spectra analysis. Format: nucleic-acid assay.
In data set [18] the test system is dsDNA. Nature of the data set: Binding affinity to synthetic 12-mer duplex DNA assessed as melting temperature compound:DNA ratio of 4:1 by 1H NMR spectroscopic analysis. Format: nucleic-acid assay.
Data set [19] concerns Quadruplex DNA. Nature of the data set: Binding affinity to synthetic telomeric 26 G-quadruplex DNA assessed as melting temperature compound:DNA ratio of 5:1 after 5 mins by CD spectra analysis (reference value: 49 degreeC). Format: nucleic-acid assay.
Data set [20] deals with Quadruplex DNA. Nature of the data set: Binding affinity to Cy5-fluorescently labeled synthetic Telomeric 26 G-quadruplex DNA by microscale thermophoresis assay. Format: nucleic-acid assay. (MST reads how a fluorescent partner responds to local heating, with and without ligand.)
The test system of data set [21] is HeLa. The data set can be described thus: Inhibition of colony formation in human HeLa cells at 0.5 to 2 uM after 10 days by methylene blue staining-based assay. Format: functional.

As for `O=C1c2ccccc2C(=O)c2c1oc1c3c(ccc21)OCN(CC1CCCO1)C3` (stereo not given), the Activity came out at 20% with dsDNA [1]; 78% in the data set on Quadruplex DNA [2]; 83% in the data set with Quadruplex DNA [3]; 87% with Quadruplex DNA [5]; 88% in the data set with Quadruplex DNA [6]; 90% with Quadruplex DNA [9]. In addition, the outcome in the data set listed under Homo sapiens [4] and in the data set listed under Homo sapiens [7] was Active. Besides, in the data set on HeLa [8], the inhibition result is “Active”.
For `O=C1c2ccccc2C(=O)c2c1oc1c3c(ccc21)OCN(CCCn1ccnc1)C3`, the Activity with dsDNA [1] worked out at 46%; in the data set with Quadruplex DNA [2], 80%; in the data set with Quadruplex DNA [3], 91%; with Quadruplex DNA [5], 82%; in the data set on Quadruplex DNA [6], 85%; in the data set on Quadruplex DNA [9] it was 94%. Further, the outcome in the data set filed under Homo sapiens [4] and in the data set filed under Homo sapiens [7] was Active. For the same compound, the inhibition entry with HeLa [8] is “Active”.
With `O=C1c2ccccc2C(=O)c2c1oc1c3c(ccc21)OCN(CCCN1CCOCC1)C3`, the Activity in the data set with dsDNA [1] came out at 33%; with Quadruplex DNA [2] it was 80%; with Quadruplex DNA [3] it was 84%; with Quadruplex DNA [5], 92%; in the data set with Quadruplex DNA [6] it was 77%; in the data set with Quadruplex DNA [9], 89%. For the same compound, the result in the data set listed under Homo sapiens [4] and in the data set filed under Homo sapiens [7] was Active. Besides, in the data set with HeLa [8], the inhibition entry is “Active”.
`O=C1c2ccccc2C(=O)c2c1oc1c3c(ccc21)OCN(CC1CCS(=O)(=O)C1)C3` (stereo not given): the Activity in the data set on dsDNA [1] came to 16%; in the data set on Quadruplex DNA [2], 75%; in the data set on Quadruplex DNA [3], 68%; in the data set on Quadruplex DNA [5], 76%; in the data set on Quadruplex DNA [6], 72%; in the data set with Quadruplex DNA [9], 73%. Further, the result in the data set listed under Homo sapiens [4] and in the data set listed under Homo sapiens [7] was inactive. In the data set on HeLa [8], the inhibition result was “Active”.
Regarding `O=C1c2ccccc2C(=O)c2c1oc1c3c(ccc21)OCN(Cc1ccccc1)C3`, the Activity came to 12% in the data set with dsDNA [1]; 80% in the data set with Quadruplex DNA [2]; 83% in the data set with Quadruplex DNA [3]; 78% in the data set with Quadruplex DNA [5]; 76% in the data set on Quadruplex DNA [6]; 87% in the data set with Quadruplex DNA [9]. For the same compound, the result in the data set listed under Homo sapiens [4] and in the data set listed under Homo sapiens [7] was Active. In addition, the inhibition entry with HeLa [8] was “Active”.
What is called Kd is the concentration at which binding is half-saturated. Turning to `CC(c1ccccc1)N1COc2ccc3c4c(oc3c2C1)C(=O)c1ccccc1C4=O` (stereo not given), the result in the data set with Quadruplex DNA [10], with Quadruplex DNA [11], in the data set with Quadruplex DNA [14], with Quadruplex DNA [16], in the data set listed under Homo sapiens [4] and in the data set listed under Homo sapiens [7] was Active. For the same compound, the Activity with dsDNA [1] is 0%; with Quadruplex DNA [2], 80%; with BJ it was “Non-Toxic”; with Quadruplex DNA [3] it was 80%; in the data set with Quadruplex DNA [5] it was 82%; in the data set with Quadruplex DNA [6] it was 78%. Further, in the data set on Quadruplex DNA [9], the Activity came to 84%. Further, the Tm is greater than 90 °C in the data set on Quadruplex DNA [12], 76 °C with dsDNA [13] and 50 °C in the data set with Quadruplex DNA [19]. In addition, the Kd at Quadruplex DNA [15] turned out to be 13 µM; at Quadruplex DNA [20], 26 µM. In addition, the result in the data set on dsDNA [17] and in the data set with dsDNA [18] was inactive.
Turning to `O=C1c2ccccc2C(=O)c2c1oc1c3c(ccc21)OCN(CCC1=CCCCC1)C3`, the Activity in the data set with dsDNA [1] was 16%; in the data set on Quadruplex DNA [2] it was 73%; in the data set with Quadruplex DNA [3], 67%; in the data set on Quadruplex DNA [5], 73%; in the data set on Quadruplex DNA [6], 55%; in the data set with Quadruplex DNA [9] it was 84%. Also, the result in the data set filed under Homo sapiens [4] and in the data set filed under Homo sapiens [7] was Active. Also, in the data set on HeLa [8], the inhibition result was “Active”.
Take `O=C1c2ccccc2C(=O)c2c1oc1c3c(ccc21)OCN(Cc1ccco1)C3`: the Activity stood at 2% in the data set with dsDNA [1]; 86% in the data set with Quadruplex DNA [2]; 92% in the data set on Quadruplex DNA [3]; 91% in the data set on Quadruplex DNA [5]; 90% in the data set on Quadruplex DNA [6]; 93% in the data set on Quadruplex DNA [9]. In addition, the result in the data set filed under Homo sapiens [4] and in the data set filed under Homo sapiens [7] was Active. Moreover, the inhibition entry in the data set with HeLa [8] was “Active”.
On to `O=C1c2ccccc2C(=O)c2c1oc1c3c(ccc21)OCN(Cc1cccnc1)C3`, for which the Activity stood at 28% with dsDNA [1]; 79% in the data set on Quadruplex DNA [2]; 88% in the data set on Quadruplex DNA [3]; 89% with Quadruplex DNA [5]; 90% in the data set with Quadruplex DNA [6]; 94% in the data set with Quadruplex DNA [9]. The result in the data set listed under Homo sapiens [4] and in the data set filed under Homo sapiens [7] was inactive. Moreover, the inhibition result with HeLa [8] is “Active”.
Consider `CC(=O)c1c(C)oc2c1c1c(c3ccccc32)OCN(CCCN2CCOCC2)C1`, for which the Activity is 22% with dsDNA [1]; 76% in the data set on Quadruplex DNA [2]; 70% in the data set with Quadruplex DNA [3]; 78% in the data set with Quadruplex DNA [5]; 75% in the data set on Quadruplex DNA [6]; 74% in the data set on Quadruplex DNA [9]. Besides, the result in the data set listed under Homo sapiens [4] and in the data set listed under Homo sapiens [7] was inactive. Also, in the data set with HeLa [8], the inhibition entry was “Active”.
Regarding `O=C1c2ccccc2C(=O)c2c1oc1c3c(ccc21)OCN(C1CCCCC1)C3`, the result in the data set on Quadruplex DNA [10], with Quadruplex DNA [11], in the data set with Quadruplex DNA [14], in the data set on Quadruplex DNA [16], in the data set filed under Homo sapiens [4] and in the data set filed under Homo sapiens [7] was Active. Also, the Activity in the data set with dsDNA [1] is 18%; in the data set with Quadruplex DNA [2], 86%; with BJ it was “Toxic”; in the data set on Quadruplex DNA [3] it was 82%; in the data set on Quadruplex DNA [5] it was 74%; in the data set on Quadruplex DNA [6], 70%. For the same compound, the Activity in the data set with Quadruplex DNA [9] is 86%. The Tm in the data set with Quadruplex DNA [12] is greater than 90 °C; with dsDNA [13] it was 76 °C; in the data set on Quadruplex DNA [19], 49 °C. In addition, the outcome in the data set with dsDNA [17] and with dsDNA [18] was inactive. In the data set with HeLa [21], this compound displayed an MED of 2 µM.
